{
  "source": "patent US12703885B2",
  "about": "“Method for predicting the response to CDK4/6 inhibitor therapy in cancer patients” (GBG FORSCHUNGS GMBH, priority 2021, dated 2026)",
  "system": "HR+, HER2− eBC at high risk of recurrence",
  "assay": "PENELOPE-B randomized, double-blind, placebo-controlled Phase 3 study; Cox regression for endpoint iDFS",
  "type": "in vivo, human",
  "description": "The data underlying the present invention were obtained in the context of the PENELOPE^B study (NCT01864746). PENELOPE^B is a randomized, double-blind, placebo-controlled Phase 3 study comparing one year of palbociclib plus at least five years of standard adjuvant endocrine therapy to placebo plus at least five years of standard adjuvant endocrine therapy in 1,250 women with HR+, HER2− eBC at high risk of recurrence who have residual invasive disease after completing neoadjuvant chemotherapy. Patients in the trial scored 3 or higher (or 2 if there were lymph node metastases at the time of surgery) on the clinical-pathologic stage—estrogen/grade (CPS-EG). The CPS-EG is a validated risk assessment tool combining: clinical stage before neoadjuvant treatment, pathological stage after neoadjuvant treatment, grading and estrogen-receptor status. More than 190 clinical sites in 12 countries around the globe participated in PENELOPE-B. The study opened in November 2013 and closed recruitment on Dec. 31, 2017. RNA was extracted from post-surgical residual tumor tissue of patients from the Penelope^B study (GBG 78) and quantified using the HTG EdgeSeq Oncology Biomarker Panel (HTG Molecular Diagnostics Inc.) resulting in a so-called count value for each of the 2559 genes in the assay. Quality control measures were performed as described by the manufacturer. For 906 patients HTG measurements were successfully performed and passed said quality controls. […] Each regression model was calculated based on 906 patients from the Penelope^B study. […] The 20 genes with smallest p-values for the interaction were selected. • 2) For each gene from step 1) the technical eligibility for measurement was evaluated. […] In the cohort of 782 patients the gene expression value was adjusted to the lower limit for between 0 and 16 patients, and to the upper limit for between 0 and 8 patients. • 4) The correlation between genes was analyzed by hierarchical clustering and analysis of the Pearson correlation coefficient matrix based on graphical methods. […]",
  "data": [
    {"smiles": "CC(=O)c1c(C)c2cnc(Nc3ccc(N4CCNCC4)cn3)nc2n(C2CCCC2)c1=O", "note": "[palbociclib]", "values": [
      {"measurement": "HR for iDFS, palbociclib vs. placebo (95% CI)", "setting": "overall population, n=906, plus standard adjuvant endocrine therapy, no significant difference between arms", "value": "0.89 (0.69-1.16)"},
      {"measurement": "HR (95% CI), arm (palbociclib vs placebo), iDFS", "setting": "subgroup score3dich high (above median of average of PIAS2, MAP2K6, DSG3, ABCC12, IFT52 expression)", "value": "0.54 (0.37-0.79)"},
      {"measurement": "HR (95% CI), arm (palbociclib vs placebo), iDFS", "setting": "subgroup score3dich low (below median of average of PIAS2, MAP2K6, DSG3, ABCC12, IFT52 expression)", "value": "1.45 (1.00-2.09)"}
    ]}
  ]
}
